From ChEMBL document CHEMBL2016556, “Discovery of novel P3-oxo inhibitor of hepatitis C virus NS3/4A serine protease” (Bioorg Med Chem Lett, 2012)

Assays:
[1] = Inhibition of Hepatitis C virus genotype 1a NS3/4A protease using Ac-DE-Dap(QXL520)-EE-Abu-psi-COO]-AS-C(5-FAMsp)-NH2 as substrate by FRET analysis; set-up: species or system Hepatitis C virus subtype 1a
Hepatitis C virus [2] = assay: Antiviral activity against Hepatitis C virus genotype 1b infected in HuH7 cells; type: functional, organism-based, Hepacivirus hominis; conditions: Huh-7
Hepatitis C virus [3] = assay: Antiviral activity against Hepatitis C virus genotype 1a infected in HuH7 cells; type: functional, organism-based, Hepacivirus hominis; conditions: subtype 1a, Huh-7
Hepatitis C virus [4] = assay: Antiviral activity against Hepatitis C virus genotype 1b expressing wild type NS3/4A protease infected in HuH7 cells; type: functional, organism-based, Hepacivirus hominis; conditions: Huh-7
Hepatitis C virus [5] = assay: Antiviral activity against Hepatitis C virus genotype 1b expressing NS3/4A protease A156S mutant infected in HuH7 cells; type: functional, organism-based, Hepacivirus hominis; conditions: Huh-7
Hepatitis C virus [6] = assay: Antiviral activity against Hepatitis C virus genotype 1b expressing NS3/4A protease A156T mutant infected in HuH7 cells; type: functional, organism-based, Hepacivirus hominis; conditions: Huh-7
Hepatitis C virus [7] = assay: Antiviral activity against Hepatitis C virus genotype 1b expressing NS3/4A protease A156V mutant infected in HuH7 cells; type: functional, organism-based, Hepacivirus hominis; conditions: Huh-7
Hepatitis C virus [8] = assay: Antiviral activity against Hepatitis C virus genotype 1b expressing NS3/4A protease […] mutant infected in HuH7 cells; type: functional, organism-based, Hepacivirus hominis; conditions: Huh-7
Hepatitis C virus [9] = assay: Antiviral activity against Hepatitis C virus genotype 1b expressing NS3/4A protease R155K mutant infected in HuH7 cells; type: functional, organism-based, Hepacivirus hominis; conditions: Huh-7
Hepatitis C virus [10] = assay: Antiviral activity against Hepatitis C virus genotype 1b expressing NS3/4A protease D168A mutant infected in HuH7 cells; conditions: Hepacivirus hominis, Huh-7
[11] = Apparent permeability of the compound at pH 7.05 by PAMPA assay; type: ADME
[12] = Oral bioavailability in rat; type: ADME, organism-based; conditions: in vivo
[13] = Clearance in rat; type: ADME, organism-based; conditions: in vivo

Row | Structure (SMILES) | IC50 [1] [nM] | EC50 (Hepatitis C virus [2]) [nM] | EC50 (Hepatitis C virus [3]) [nM] | EC50 (Hepatitis C virus [4]) [nM] | EC50 (Hepatitis C virus [5]) [nM] | EC50 (Hepatitis C virus [6]) [nM] | EC50 (Hepatitis C virus [7]) [nM] | EC50 (Hepatitis C virus [8]) [nM] | EC50 (Hepatitis C virus [9]) [nM] | EC50 (Hepatitis C virus [10]) [nM] | Papp [11] [×10⁻⁶ cm/s] | bioavailability [12] [%] | clearance [13] [mL/min/kg]
1 | COc1ccc2c(O[C@@H]3C[C@H]4C(=O)N[C@]5(C(=O)NS(=O)(=O)C6CC6)C[C@H]5/C=C\CCCCCC(O)C(=O)N4C3)cc(-c3nc(C(C)C)cs3)nc2c1C (stereo not given in full) | 6.8 | 0.8 | 1 | 1.3 | 0.1 | 2.6 | 3.2 | 45.7 | 60.3 | 62.8 | – | – | –
2 | CCOC1CCCCC/C=C\[C@@H]2C[C@@]2(C(=O)NS(=O)(=O)C2CC2)NC(=O)[C@@H]2C[C@@H](Oc3cc(-c4nc(C(C)C)cs4)nc4c(C)c(OC)ccc34)CN2C1=O (stereo not given in full) | 107 | 79.4 | 251 | 63.1 | 29.4 | 397 | 434 | 694 | 3980 | 514 | – | – | –
3 | CC(C)(C)OC(=O)N[C@H]1CCCCC/C=C\[C@@H]2C[C@@]2(C(=O)NS(=O)(=O)C2CC2)NC(=O)[C@@H]2C[C@@H](OC(=O)N3Cc4cccc(F)c4C3)CN2C1=O [DANOPREVIR] | 0.4 | – | – | 0.1 | 1.6 | 6.8 | 8.3 | 24.5 | 80.8 | 48.5 | – | – | –
4 | COc1ccc2c(O[C@@H]3C[C@H]4C(=O)N[C@]5(C(=O)NS(=O)(=O)C6CC6)C[C@H]5/C=C\CCCCCC(OC(=O)N5CCCCC5)C(=O)N4C3)cc(-c3nc(C(C)C)cs3)nc2c1C (stereo not given in full) | 56.2 | 3.2 | 10 | 7.1 | 9.7 | 90.2 | 658 | 3980 | 1480 | 2150 | – | – | –
5 | COc1ccc2c(O[C@@H]3C[C@H]4C(=O)N[C@]5(C(=O)NS(=O)(=O)C6CC6)C[C@H]5/C=C\CCCCCC(OC(=O)n5ccnc5)C(=O)N4C3)cc(-c3nc(C(C)C)cs3)nc2c1C (stereo not given in full) | 3.2 | 0.5 | 0.8 | 0.5 | 0.1 | 2.8 | 3.9 | 151 | 47.9 | 70 | 1.2 | 12 | 53.7
6 | COc1ccc2c(O[C@@H]3C[C@H]4C(=O)N[C@]5(C(=O)NS(=O)(=O)C6CC6)C[C@H]5/C=C\CCCCCC(OC(=O)NC(C)(C)C)C(=O)N4C3)cc(-c3nc(C(C)C)cs3)nc2c1C (stereo not given in full) | 31 | 0.8 | 5 | 1.2 | 2.5 | 84.6 | 322 | 1070 | 324 | 462 | – | – | –
7 | COc1ccc2c(O[C@@H]3C[C@H]4C(=O)N[C@]5(C(=O)NS(=O)(=O)C6CC6)C[C@H]5/C=C\CCCCCC(OC(=O)OC(C)(C)C)C(=O)N4C3)cc(-c3nc(C(C)C)cs3)nc2c1C (stereo not given in full) | 195 | 39.8 | 50.1 | 63.1 | – | – | – | – | – | – | – | – | –
